# In patent US10906913B2, “NMDA receptor modulators and uses thereof” (Northwestern University, priority 2008, dated 2021):
# Entries after “also recorded” stand apart in the source; their conditions may differ. Where two headings read alike, the source gives them in different places. Peptide text beside a SMILES is read from it.
# Assays:
# Glutamate, AMPA = assay: Binding assay, Glutamate, AMPA; parameters: species or system rat; details: 10 μM
# Source text: (§1) Table B depicts the results of binding assays against various targets with AK51: […]
# Glutamate, Kainate = assay: Binding assay, Glutamate, Kainate; parameters: species or system rat; details: 10 μM
# Source text: as §1
# NMDA receptor [1] = target: T1, NMDA receptor (Rattus norvegicus, UniProt P35439); assay: NMDA receptor-gated single neuron conductance (INMDA) in hippocampal CA1 pyramidal neurons; assay type: cell-based; details: for enhancement of INMDA compared among the tested compounds: comparison of compound B, AK-51, AK-52
# T1 construct: NMDA receptor-gated single neuron conductance (INMDA) in hippocampal CAI pyramidal neurons; from tissue; host or cells: in vitro hippocampal slices, CA1 pyramidal neurons
# Source text: (§2) The effects of the three compounds were examined on 1) NMDA receptor-gated single neuron conductance (INMDA) in hippocampal CAI pyramidal neurons and 2) the magnitude of long-term potentiation (LTP) and long term depression (LTD) at Schaffer collateral CA1 synapses, in in vitro hippocampal slices.
# rats = assay: Alternating T-maze learning task; assay type: in vivo, rat; details: 60 min before testing
# Description: Male 3 month old Fisher 344 X Brown Norway F1 cross rats (FBNF1) were used for this study. The t-maze was constructed with arms (45 cm long×10 cm wide×10 cm high) made of black Plexiglas enclosing the maze. Two plastic bottle caps, lined with wire mesh, were secured to the end of each goal arm in which the food reward (Cheerios, 100 mg/piece) was placed. Before the start of training, animals were gradually deprived of food to approximately 85% of their free feeding weight. On three successive days before the start of training, animals were habituated to the t-maze with food located throughout the maze. […] On the subsequent testing day, animals were given injections of AK51 (0.3, 1, 3, 10, 30 mg/kg p.o.), or DMSO vehicle (1 mg/ml; Sigma, Saint Louis Mo.) in a blind manner via gastric gavage (4″, 16-ga; Braintree Scientific, Braintree Mass.) 60 min prior to the start of testing (n=8-9 per group. On the first trial of testing, both arms were baited with food and for the subsequent 20 trials only alternating choices (opposite of the animal's previous choice) were rewarded (˜30 sec inter-trial interval). The number of trials to criterion (5 consecutive correct choices) was calculated for each animal. Data was analyzed by ANOVA followed by Fisher PLSD post hoc tests comparing individual drug doses to vehicle (α=0.05). […]
# [2] = test system: Schaffer collateral-CA1 synapses; assay: Long term depression (LTD) at Schaffer collateral-CA1 synapses, in vitro hippocampal slices; assay type: cell-based; details: 1 μM; low frequency stimulus 2 Hz/10 min
# Source text: as §2
# [3] = target: Glutamate, NMDA, Phencyclidine (Rattus norvegicus, UniProt P35439); assay: Binding assay, Glutamate, NMDA, Phencyclidine
# Source text: as §1
# [4] = target: Glutamate, NMDA, Polyamine (Rattus norvegicus, UniProt P35439+Q00960); assay: Binding assay, Glutamate, NMDA, Polyamine
# Source text: as §1
# [5] = target: Glutamate, Metabotropic, mGlus (Homo sapiens, UniProt P41594); assay: Binding assay, Glutamate, Metabotropic, mGlus
# Source text: as §1
# [6] = test system: Glycine, Strychnine-Sensitive; assay: Binding assay, Glycine, Strychnine-Sensitive; parameters: species or system rat; details: 10 μM
# Source text: as §1
# Glutamate, NMDA, Glycine = Glutamate, NMDA, Glycine (Rattus norvegicus, UniProt P35439); assay: Binding assay, Glutamate, NMDA, Glycine
# Source text: as §1
# Glutamate, NMDA, Agonism = assay: Binding assay, Glutamate, NMDA, Agonism; parameters: species or system rat; details: 10 μM
# Source text: as §1
# Glutamate, Non-Selective = assay: Binding assay, Glutamate, Non-Selective; parameters: species or system rat; details: 10 μM
# Source text: as §1
# [7] = test system: Schaffer collateral-CA1 synapses; assay: Long-term potentiation (LTP) at Schaffer collateral-CA1 synapses, in vitro hippocampal slices; assay type: cell-based; details: for magnitude of LTP: high frequency stimulus; for magnitude / induction of LTP: concentration not given
# Source text: as §2
# [8] = test system: Schaffer collateral-CA1 synapses; details: cited from earlier work
# [9] = test system: Schaffer collateral-CA1 synapses; details: cited from earlier work; remark: listed apart in the source
# NMDA receptor [10] = target: T1, NMDA receptor; details: cited from earlier work
# Glutamate, Metabotropic, mGlus, sequence (P41594 21-1212): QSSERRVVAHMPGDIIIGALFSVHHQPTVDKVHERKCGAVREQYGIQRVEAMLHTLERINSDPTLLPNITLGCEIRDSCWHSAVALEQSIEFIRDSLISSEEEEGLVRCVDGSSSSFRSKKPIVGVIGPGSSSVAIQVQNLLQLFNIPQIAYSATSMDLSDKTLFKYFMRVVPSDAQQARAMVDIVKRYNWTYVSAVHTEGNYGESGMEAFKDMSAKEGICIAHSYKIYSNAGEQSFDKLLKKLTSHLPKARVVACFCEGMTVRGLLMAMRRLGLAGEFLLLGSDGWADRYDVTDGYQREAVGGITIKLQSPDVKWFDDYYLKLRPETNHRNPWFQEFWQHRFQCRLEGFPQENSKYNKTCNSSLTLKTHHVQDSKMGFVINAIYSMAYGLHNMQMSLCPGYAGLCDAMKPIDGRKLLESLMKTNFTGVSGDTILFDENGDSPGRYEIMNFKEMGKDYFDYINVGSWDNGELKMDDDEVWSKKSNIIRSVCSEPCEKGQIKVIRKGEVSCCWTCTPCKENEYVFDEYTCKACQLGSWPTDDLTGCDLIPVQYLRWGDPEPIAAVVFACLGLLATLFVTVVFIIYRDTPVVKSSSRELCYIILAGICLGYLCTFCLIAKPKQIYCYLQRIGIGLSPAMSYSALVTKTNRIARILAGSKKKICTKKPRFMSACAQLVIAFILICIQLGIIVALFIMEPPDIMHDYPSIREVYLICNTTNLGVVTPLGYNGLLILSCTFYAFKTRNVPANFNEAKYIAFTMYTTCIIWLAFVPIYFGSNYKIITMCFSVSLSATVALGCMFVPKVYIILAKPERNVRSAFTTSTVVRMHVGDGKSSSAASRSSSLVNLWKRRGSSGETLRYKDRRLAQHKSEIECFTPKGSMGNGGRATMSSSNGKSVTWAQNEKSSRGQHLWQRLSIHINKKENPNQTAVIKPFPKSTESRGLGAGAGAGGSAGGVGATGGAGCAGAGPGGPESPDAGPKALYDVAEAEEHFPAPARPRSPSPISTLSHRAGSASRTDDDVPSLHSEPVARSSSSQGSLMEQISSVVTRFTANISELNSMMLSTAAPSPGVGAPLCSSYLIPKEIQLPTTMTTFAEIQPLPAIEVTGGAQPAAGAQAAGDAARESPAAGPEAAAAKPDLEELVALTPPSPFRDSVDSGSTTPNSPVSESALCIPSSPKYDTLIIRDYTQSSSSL
# Glutamate, NMDA, Polyamine, sequence (Q00960 27-1482, other chains not shown): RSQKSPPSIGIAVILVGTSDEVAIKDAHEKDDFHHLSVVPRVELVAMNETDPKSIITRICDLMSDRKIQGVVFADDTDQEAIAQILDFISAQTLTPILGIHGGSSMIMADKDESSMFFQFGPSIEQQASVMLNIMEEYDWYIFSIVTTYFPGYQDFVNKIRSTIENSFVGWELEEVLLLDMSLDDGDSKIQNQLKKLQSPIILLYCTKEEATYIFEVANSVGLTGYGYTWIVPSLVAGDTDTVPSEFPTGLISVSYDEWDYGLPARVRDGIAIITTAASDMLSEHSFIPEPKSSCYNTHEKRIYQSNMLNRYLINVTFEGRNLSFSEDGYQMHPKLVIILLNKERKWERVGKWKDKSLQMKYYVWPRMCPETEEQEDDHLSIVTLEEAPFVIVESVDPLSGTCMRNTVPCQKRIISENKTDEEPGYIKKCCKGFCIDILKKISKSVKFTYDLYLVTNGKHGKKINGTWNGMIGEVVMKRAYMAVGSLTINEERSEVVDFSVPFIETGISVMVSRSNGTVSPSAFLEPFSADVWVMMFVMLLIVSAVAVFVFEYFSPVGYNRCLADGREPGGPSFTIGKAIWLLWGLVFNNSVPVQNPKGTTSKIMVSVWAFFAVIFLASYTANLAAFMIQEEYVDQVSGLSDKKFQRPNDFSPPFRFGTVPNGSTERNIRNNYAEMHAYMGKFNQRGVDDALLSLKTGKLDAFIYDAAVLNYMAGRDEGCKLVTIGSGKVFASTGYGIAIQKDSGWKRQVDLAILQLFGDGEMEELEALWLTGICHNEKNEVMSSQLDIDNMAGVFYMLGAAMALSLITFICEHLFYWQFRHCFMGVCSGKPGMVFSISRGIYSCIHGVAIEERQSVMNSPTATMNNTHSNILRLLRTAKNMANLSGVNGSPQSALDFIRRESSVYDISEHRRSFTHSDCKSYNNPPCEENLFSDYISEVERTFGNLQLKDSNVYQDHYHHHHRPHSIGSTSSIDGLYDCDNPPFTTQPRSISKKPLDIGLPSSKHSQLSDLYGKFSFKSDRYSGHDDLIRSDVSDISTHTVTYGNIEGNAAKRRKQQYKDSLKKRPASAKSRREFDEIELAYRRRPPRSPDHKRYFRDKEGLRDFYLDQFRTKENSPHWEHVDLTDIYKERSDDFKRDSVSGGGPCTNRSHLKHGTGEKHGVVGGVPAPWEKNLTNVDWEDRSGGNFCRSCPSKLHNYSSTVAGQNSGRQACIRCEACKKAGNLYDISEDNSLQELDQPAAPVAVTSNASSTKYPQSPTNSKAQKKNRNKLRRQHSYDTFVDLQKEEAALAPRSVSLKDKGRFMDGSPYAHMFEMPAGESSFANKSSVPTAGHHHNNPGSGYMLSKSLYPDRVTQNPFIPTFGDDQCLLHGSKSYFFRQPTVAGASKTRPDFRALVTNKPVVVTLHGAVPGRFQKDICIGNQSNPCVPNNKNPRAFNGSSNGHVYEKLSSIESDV
smiles,measurement,setting,value
O=C1NCC12CCCN2 (stereo not drawn) [AK-51],% Inhibition,"Glutamate, AMPA",−8%
same,% Inhibition,"Glutamate, Kainate",−13%
same,NMDA current (normalized pharmacologically-isolated NMDA receptor-gated current),"NMDA receptor [1]; 100 nM and 1 μM, 20 min bath application, whole-cell recording",enhances
same,single shock evoked INMDA,"NMDA receptor [1]; 100 nM, listed as NRX-10,051",enhanced; also recorded: marked enhancement
same,single shock evoked INMDA,NMDA receptor [1]; 1 μM,enhancement
same,single shock evoked INMDA,"NMDA receptor [1]; 1 μM, listed as NRX-10,051",enhanced
same,enhancement of INMDA compared among the tested compounds,NMDA receptor [1],less potency than compound B; also recorded: smaller in magnitude
same,learning behavior in the T-maze test,"rats; 1.0 mg/kg by mouth, P<0.001",statistically significant enhancement
same,learning behavior in the T-maze test,"rats; 3.0 mg/kg by mouth, P<0.01",statistically significant enhancement
same,LTD,[2],not altering
same,inhibition at 10 µM,[3],-5%
same,inhibition at 10 µM,[4],-14%
same,inhibition at 10 µM,[5],-7%
same,% Inhibition,[6],4%
same,inhibition at 10 µM,"Glutamate, NMDA, Glycine",-6%
same,% Inhibition,"Glutamate, NMDA, Agonism",27%
same,% Inhibition,"Glutamate, Non-Selective",−10%
same,magnitude of LTP,[7]; 100 nM,Enhancement
same,magnitude of LTP,"[7]; 1 μM, listed as AK5151",Enhancement
same,magnitude of LTP,"[7]; 1 μM, listed as NRX-10,051",doubled the magnitude
same,magnitude / induction of LTP,[7],enhances
CC(O)C(NC(=O)OCc1ccccc1)C(=O)N1CC2(CCCN2C(=O)OCc2ccccc2)C1=O (stereo not drawn) [AK-52],single shock evoked INMDA,NMDA receptor [1]; 100 nM,mild enhancement
same,single shock evoked INMDA,"NMDA receptor [1]; 100 nM, listed as AK52",enhancement
same,single shock evoked INMDA,NMDA receptor [1]; 1 μM,significant reduction
same,single shock evoked INMDA,"NMDA receptor [1]; 1 μM, listed as AK52",marked reduction
same,enhancement of INMDA compared among the tested compounds,NMDA receptor [1],weakest enhancer
same,LTD,[2],without altering; also recorded: did not affect
same,magnitude of LTP,[7]; 100 nM,enhancement
same,magnitude of LTP,[7]; 1 μM,"slight, but significant, reduction"
same,magnitude / induction of LTP,[7],selectively enhances
C[C@@H](O)[C@H](N)C(=O)N1CCC[C@H]1C(=O)N1CCC[C@H]1C(=O)N[C@H](C(N)=O)[C@@H](C)O [GLYX-13] (H-TPPT-NH2),LTP,[8]; 100 μM,reducing
same,LTP,[8]; 1-10 μM,enhancement
same,simultaneous effect on LTP and LTD,[8],simultaneously increase LTP and reduce LTD
same,LTD,[9]; 100 μM,no longer affected
same,LTD,[9]; 1-10 μM,reducing
same,burst INMDA,NMDA receptor [10]; 100 μM,reducing
same,burst-activated INMDA,NMDA receptor [10]; 1-10 μM,enhancement
same,single pulse evoked INMDA,NMDA receptor [10]; 1-10 μM,reducing
same,INMDA mediated by NMDA receptors containing NR2A/B subunits,NMDA receptor [10],selectively enhance
